Measurements reported in patent publication US20210128561A1, “MRGX Receptor Antagonists” (Rheinische-Friedrich-Wilhelms-Universität Bonn, priority 2019, published 2021).

What was measured:
human MrgX4 L83S = biological target: T1, human MrgX4 L83S (Homo sapiens, UniProt Q96LA9, L83S); assay: β-arrestin assay (CHO β-arrestin human MrgX4 L83S); assay type: cell-based; details: for % inhibition ± SEM: test concentration not given
T1 construct: expressed in transfected cells; host or cells: CHO beta-arrestin cells

human wildtype MrgX2 = biological target: T2, human wildtype MrgX2 (Homo sapiens, UniProt Q96LB1); assay: calcium assay (LN229 cells recombinantly expressing human wildtype MrgX2); assay type: cell-based; details: for % inhibition ± SEM: test concentration not given
T2 construct: expressed in transfected cells; host or cells: LN229 cells
T2 sequence (Q96LB1 1-330): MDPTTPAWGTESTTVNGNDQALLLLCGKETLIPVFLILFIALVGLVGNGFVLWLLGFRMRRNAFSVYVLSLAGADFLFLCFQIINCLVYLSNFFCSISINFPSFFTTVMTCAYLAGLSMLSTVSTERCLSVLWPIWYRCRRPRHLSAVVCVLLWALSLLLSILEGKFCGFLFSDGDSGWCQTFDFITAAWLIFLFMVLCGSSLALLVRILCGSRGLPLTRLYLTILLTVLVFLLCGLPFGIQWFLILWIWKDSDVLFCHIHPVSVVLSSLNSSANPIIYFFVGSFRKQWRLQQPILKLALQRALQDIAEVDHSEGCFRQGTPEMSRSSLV

T1 sequence (Q96LA9 whole entry L83S): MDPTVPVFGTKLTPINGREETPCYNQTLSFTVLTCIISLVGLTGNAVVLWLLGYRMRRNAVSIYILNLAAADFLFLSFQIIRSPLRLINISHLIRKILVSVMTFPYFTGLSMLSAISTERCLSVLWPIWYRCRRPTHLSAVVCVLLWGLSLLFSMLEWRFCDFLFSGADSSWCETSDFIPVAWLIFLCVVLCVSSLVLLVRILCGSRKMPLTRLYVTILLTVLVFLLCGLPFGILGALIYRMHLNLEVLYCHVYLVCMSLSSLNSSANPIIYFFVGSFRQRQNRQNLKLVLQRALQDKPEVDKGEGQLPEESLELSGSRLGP

Compound | IC50 (human MrgX4 L83S) | % inhibition ± SEM (human MrgX4 L83S) | IC50 (human wildtype MrgX2) | % inhibition ± SEM (human wildtype MrgX2)
2-Methyl-4H-benzo[4,5]thiazolo[3,2-a]pyrimidin-4-one [B-60] | > 100 µM | 14% | – | –
Cc1cc(=O)n2cc[nH]c2n1 [A-1] | > 100 µM | 4% | – | –
O=c1ccnc2[nH]c3ccccc3n12 [A-2] | > 100 µM | 18% | – | –
CCOC(=O)c1cnc2[nH]c3ccccc3n2c1=O [A-3] | > 100 µM | 25% | – | –
CCCn1c(C)cc(=O)n2c3ccccc3nc12 [A-4] | > 100 µM | 35% | – | –
Cc1cc(=O)n2c3ccccc3nc2n1Cc1ccccc1 [A-5] | > 10 µM | −5% | – | –
Cc1cc(=O)n2c3ccccc3nc2n1Cc1ccc(Cl)cc1 [A-6] | > 10 µM | 14% | – | –
Cc1cc(=O)n2c3ccccc3nc2n1CC#N [A-7] | > 100 µM | 43% | – | –
Cc1[nH]c2nc3ccccc3n2c(=O)c1C [A-8] | 11.6 ± 3.7 µM | – | 2.89 ± 0.24 µM | –
CCc1c(C)[nH]c2nc3ccccc3n2c1=O [A-9] | 3.23 ± 0.36 µM | – | 0.662 ± 0.102 µM | –
CCCc1c(C)[nH]c2nc3ccccc3n2c1=O [A-10] | 2.42 ± 0.22 µM | – | 0.683 ± 0.174 µM | –
CCCCc1c(C)[nH]c2nc3ccccc3n2c1=O [A-11] | > 100 µM | 37% | – | –
Cc1[nH]c2nc3ccccc3n2c(=O)c1CCC(C)C [A-12] | > 10 µM | −25% | – | –
Cc1[nH]c2nc3ccccc3n2c(=O)c1Cc1ccccc1 [A-13] | > 100 µM | 24% | – | –
Cc1[nH]c2nc3ccccc3n2c(=O)c1CCc1ccccc1 [A-14] | > 10 µM | 19% | – | –
CCOC(=O)CCc1c(C)[nH]c2nc3ccccc3n2c1=O [A-15] | 1.4 ± 0.88 µM | – | > 100 µM | 3%
Cc1[nH]c2nc3ccccc3n2c(=O)c1CCC#N [A-16] | > 100 µM | 26% | – | –
CC(C)c1cc(=O)n2c(nc3ccccc32)[nH]1 [A-17] | 3.22 ± 0.82 µM | – | > 100 µM | 70%
CC(C)(C)c1cc(=O)n2c(nc3ccccc32)[nH]1 [A-18] | > 100 µM | 48% | – | –

Compound | IC50 (human MrgX4 L83S) | % inhibition ± SEM (human MrgX4 L83S) | IC50 (human wildtype MrgX2) | % inhibition ± SEM (human wildtype MrgX2)
CCCc1cc(=O)n2c(nc3ccccc32)[nH]1 [A-19] | 14.7 ± 1.3 µM | – | > 100 µM | 27%
O=c1cc(-c2ccccc2)[nH]c2nc3ccccc3n12 [A-20] | > 100 µM | −2% | – | –
CCCc1c(-c2ccccc2)[nH]c2nc3ccccc3n2c1=O [A-21] | 0.583 ± 0.049 µM | – | 0.0121 ± 0.0015 µM | –
N#CCCc1c(-c2ccccc2)[nH]c2nc3ccccc3n2c1=O [A-22] | > 100 µM | 2% | – | –
CCc1c(O)[nH]c2nc3ccccc3n2c1=O [A-24] | > 100 µM | 16% | > 100 µM | 2%
CCCCc1c(O)[nH]c2nc3ccccc3n2c1=O [A-25] | > 100 µM | 22% | – | –
COCc1cc(=O)n2c(nc3ccccc32)[nH]1 [A-26] | > 100 µM | −13% | – | –
O=C(O)Cc1cc(=O)n2c(nc3ccccc32)[nH]1 [A-27] | > 100 µM | −18% | – | –
COC(=O)Cc1cc(=O)n2c(nc3ccccc32)[nH]1 [A-28] | > 100 µM | 4% | – | –
CCOC(=O)Cc1cc(=O)n2c(nc3ccccc32)[nH]1 [A-29] | > 100 µM | −33% | – | –
CCc1c(C)n(C)c2nc3ccccc3n2c1=O [A-30] | > 10 µM | 2% | > 100 µM | 31%
CCc1c(C)nc2[nH]ccn2c1=O [B-31] | > 100 µM | 40% | – | –
O=C(O)c1cnc2[nH]c3ccccc3n2c1=O [B-32] | > 100 µM | 45% | – | –
Cc1cc(=O)n2c(n1)[nH]c1ccccc12 [B-33] | > 100 µM | 24% | – | –
Cc1[nH]c2nc3ccccc3n2c(=O)c1CCO [B-34] | > 100 µM | 22% | > 100 µM | −2%
COCCc1c(C)[nH]c2nc3ccccc3n2c1=O [B-35] | > 10 µM | 20% | – | –
CC(C)c1cc(=O)n2c3ccccc3n(C)c2n1 [B-36] | > 100 µM | 48% | > 100 µM | 10%
CCc1c(C(C)C)[nH]c2nc3ccccc3n2c1=O [B-37] | 0.29 ± 0.098 µM | – | 0.00248 ± 0.00075 µM | –
